Data taken from patent publication US4931450A, “Amino acid derivatives” (Novo Industri A/S, priority 1986, dated 1990).
Counter-ions that a name gives are not always drawn. Like-named read-outs stand apart in the source and are kept apart here.

Legend:
GABA-uptake = assay: In vitro GABA-uptake inhibition, essentially as described by Fjalland, 3H-GABA as substrate; assay type: biochemical
Description: GABA-uptake inhibition was measured essentially as described by Fjalland (Acta Pharmacol. et. Toxicol. (1978), 42, 73-76) using 25 mM of 3H-GABA as a substrate.

[1] = system: DBA/2 mice (convulsions induced by loud noise; Rotarod); assay: Rotarod test versus convulsions induced by loud noise in DBA/2 mice (ratio ED50 Rotarod/ED50 tonic convulsions); assay type: in vivo, male DBA/2 mice; conditions: i.p., Rotarod test 25 min after injection, then 14 kHz tone at 111 dB for 30 sec
Description: The convulsions induced by loud noise in the DBA/2 strain of mice is regarded as a reliable model for evaluating anti-epileptic drug effects, cf. E. N. Petersen et al.: Psychopharmacol. 83 (1984), 240, and A. G. Chapman et al.: Arzmeim.Forsch. 10 (1984), 1261. The Rotarod and Traction tests were used to evaluate the sedative properties of the test drugs.
Male DBA/2 mice (8±1 g) were used in all experiments. The animals were pretrained on the Rotarod (6 rpm; rod diameter 2.5 cm) for 1 min. The compounds tested were injected intra-peritoneally. Twenty-five min, later the animals underwent a 2 min. test on the Rotarod. The number of failures to stay on the rod was counted. An error rate higher than 10 was assigned the maximum score of 10. Immediately after the Rotarod test, the animals were tested in a Traction test, cf. Psychopharmacol. above. In this test, the animal was required to maintain grasp on a thin rod (diameter 2.5 mm) with the forepaws for five sec. and, within this period of time, to show a traction response (grasping onto the rod with one of the hindlegs). The performance on the test was based on the absence or presence of the traction response with the 5 sec. test period. Finally, after the Traction test, the animals were individually placed in a chamber in which they were exposed for 30 sec. to a 14 kHz sinus tone at 111 dB. During this period of time, the following behaviours were noted: "wild running", clonic convulsions and death.
The compounds tested were dissolved in distilled water or suspended in 5% chremophore. The injection volume was 0.2 ml/mouse.
In table 2, below, the ratio ED50 Rotarod/ED50 tonic convulsions is given for the compounds tested. NO-05-0340 is R-N-(4-(2-methylphenyl)-4-(3-methyl-2-thienyl)but-3-en-1-yl)nipecotic acid and NO-05-0356 is R-N-(4-(N-methylpyrrol-2-yl)-4-phenylbut-3-en-1-yl)nipecotic acid.

GABA uptake = conditions: orally active; cited from earlier work
[2] = 3H-GABA substrate, two separate experiments, 3-5 concentrations of test compound, read-out: IC50
[3] = R3 nipecotic acid, read-out: in vitro test value

| SMILES | IC50 (GABA-uptake; [2]) | also measured |
| --- | --- | --- |
| O=C(O)CC1CCN(CCC=C(c2ccccc2)c2ccccc2)C1 (stereo not drawn) [SK&F 100561, N-(4,4-diphenyl-3-butenyl)-β-homoproline, reference compound] |  | ratio ED50 Rotarod/ED50 tonic convulsions [1]: 7; GABA uptake inhibition, oral activity (GABA uptake): orally active inhibitors of GABA uptake |
| O=C(O)C1CCCN(CCC=C(c2ccccc2)c2cccs2)C1 (racemic) [reference compound] | 470 nM | IC50 (GABA-uptake; [3]): 470 nM |
| Cl.Cn1cccc1C(=CCCN1CCC[C@@H](C(=O)O)C1)c1ccccc1 [NO-05-0356, R-N-(4-(N-Methylpyrrol-2-yl)-4-phenylbut-3-en-1-yl)nipecotic acid hydrochloride] | 68 nM | ratio ED50 Rotarod/ED50 tonic convulsions [1]: 21 |
| Cc1ccccc1C(=CCCN1CCC[C@@H](C(=O)O)C1)c1sccc1C [NO-05-0340, R-N-(4-(2-Methylphenyl)-4-(3-methyl-2-thienyl)but-3-en-1-yl)nipecotic acid] | 74 nM | ratio ED50 Rotarod/ED50 tonic convulsions [1]: 8; IC50 (GABA-uptake; [3]): 74 nM |
| O=C(O)[C@@H]1CCCN(CCC=C(c2ccccc2)c2cccs2)C1 (mixture of isomers) [reference compound] | 236 nM |  |
| Cc1cc(Cl)ccc1C(=CCCN1CCC[C@@H](C(=O)O)C1)c1cccn1C [Example 57] | 148 nM |  |
| Cc1ccc(C(=CCCN2CCC[C@@H](C(=O)O)C2)c2sccc2C)c(C)c1 [Example 10, R-N-(4-(2,4-dimethylphenyl)-4-(3-methyl-2-thienyl)but-3-en-1-yl)nipecotic acid hydrochloride] | 190 nM |  |
| Cn1cccc1C(=CCCN1CCC=C(C(=O)O)C1)c1ccccc1 [NO-05-0387, N-(4-(N-Methylpyrrol-2-yl)-4-phenylbut-3-en-1-yl)guvacine hydrochloride] | 126 nM |  |
| O=C(O)C1CCCN(CCC=C(c2ccccc2)c2ccccc2)C1 (stereo not drawn) [SK&F 89976A, N-(4,4-diphenyl-3-butenyl)nipicotic acid, reference compound] |  | ratio ED50 Rotarod/ED50 tonic convulsions [1]: 5; GABA uptake inhibition, oral activity (GABA uptake): orally active inhibitors of GABA uptake |
| O=C(O)C1CCCN(CCC=C(c2ccccc2)c2cccs2)C1 (stereo not drawn) [SK&F 100604J, N-(4-sphenyl-4-(2-thienyl)-3-butenyl)nipecotic acid] |  | GABA uptake inhibition, oral activity (GABA uptake): orally active inhibitors of GABA uptake |
| Cc1ccsc1C(=CCCN1CCC[C@@H](C(=O)O)C1)c1ccccc1F [Example 24] | 217 nM |  |
| O=C(O)C1=CCCN(CCC=C(c2ccccc2)c2ccccc2)C1 [SK&F 100330A, N-(4,4-diphenyl-3-butenyl)guvacine] |  | GABA uptake inhibition, oral activity (GABA uptake): orally active inhibitors of GABA uptake |
| CCn1cccc1C(=CCCN1CCC=C(C(=O)O)C1)c1ccccc1 [Example 59] | 162 nM |  |
| O=C(O)C1=CCCN(CCC=C(c2ccccc2)c2cccs2)C1 (mixture of isomers) [phenyl, thien-2-yl, guvacine, (E/Z), reference compound] | 217 nM |  |

Further lines, with some results ahead:

| IC50 (GABA-uptake; [2]) | SMILES | also measured |
| --- | --- | --- |
| 56 nM | COc1cccc(C(=CCCN2CCC[C@@H](C(=O)O)C2)c2sccc2C)c1 [Example 18] |  |
| 117 nM | Cc1ccccc1C(=CCCN1CCC=C(C(=O)O)C1)c1sccc1C [Example 15] |  |
| 89 nM | Cc1cc(Cl)ccc1C(=CCCN1CCC[C@@H](C(=O)O)C1)c1sccc1C [Example 16] |  |
| 104 nM | Cc1ccsc1C(=CCCN1CCC[C@@H](C(=O)O)C1)c1cccc(Cl)c1C [Example 49] |  |
| 124 nM | Cc1ccsc1C(=CCCN1CCC[C@@H](C(=O)O)C1)c1cccc(Cl)c1 (mixture of isomers) |  |
| 85 nM | CCCn1cccc1C(=CCCN1CCC[C@@H](C(=O)O)C1)c1ccccc1C [Example 14] |  |
| 49 nM | CCn1cccc1C(=CCCN1CCC[C@@H](C(=O)O)C1)c1ccccc1C [Example 58] |  |
